Measured values as given in patent US20250113823A1, “Arthropod Control Compositions” (priority 2022, published 2025).
Read-outs that look alike come from different tables or passages of the source.

Columns and labels:
Aedes aegypti = assay: Warm Body assay, mosquito landings on treated warm body; assay type: in vivo; conditions: for pest or weed control at 7.1 µg/mL: 0.0071 mg/mL (Table 1); for pest or weed control at 53 µg/mL: 0.053 mg/mL (Table 1); for pest or weed control at 4470 µg/mL: 4.47 mg/mL (Table 1)
Procedure, shortened: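 Compounds in ethanol (100 μL, various concentrations) were applied to a sandblasted glass dish covering the warm body (28.3 cm^2), with ethanol as control. Landings were counted automatically from 30 non-blood-fed, sugar-fed Aedes aegypti Rockefeller females aged 5–10 days, under 150 lux.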

Ixodes ricinus = assay: Warm Plate assay, tick repellence; conditions: for pest or weed control at 400 µg/mL / pest or weed control at 2000 µg/mL / pest or weed control at 10000 µg/mL: Ixodes ricinus, read-out: Percentage of repellence of ticks Ixodes ricinus on the warm plate; for ticks repelled: concentration of 1% (Table 10)
Anopheles gambiae = assay: Warm Body assay, mosquito landings on treated warm body; assay type: in vivo
Method: Anopheles gambiae is also a model organism as it is anthropophilic and transmits malaria.
The controlling effect according to the present invention was assessed using an adapted Warm Body assay as defined in Kröber T, Kessler S, Frei J, Bourquin M, Guerin P M. 2010. J Am Mosq Control Assoc. 26: 381-386. In this in-vitro assay the number of mosquito landing on a warm body, simulating an attractive host treated with the tested stimuli, was measured in order to assess the repellence effect.
On the sandblasted glass Petri dish covering the warm body (28.3 cm^2), 100 μL of the compounds diluted at different concentrations in ethanol was applied. The number of mosquito landing on the warm body was counted for each stimulus and pure ethanol (solvent) as control.

[1] = Aedes aegypti, 0.0032 mg/mL (Table 1), read-out: Percentage of repellence of mosquitoes Aedes aegypti landing on the warm body
[2] = Aedes aegypti, read-out: Percentage of repellence of mosquitoes Aedes aegypti landing on the warm body
[3] = Aedes aegypti, 0.016 mg/mL (Table 1), read-out: Percentage of repellence of mosquitoes Aedes aegypti landing on the warm body
[4] = Aedes aegypti, 0.0357 mg/mL (Table 1), read-out: Percentage of repellence of mosquitoes Aedes aegypti landing on the warm body
[5] = Aedes aegypti, 0.08 mg/mL (Table 1), read-out: Percentage of repellence of mosquitoes Aedes aegypti landing on the warm body
[6] = Aedes aegypti, 0.178 mg/mL (Table 1), read-out: Percentage of repellence of mosquitoes Aedes aegypti landing on the warm body
[7] = Aedes aegypti, 0.4 mg/mL (Table 1), read-out: Percentage of repellence of mosquitoes Aedes aegypti landing on the warm body
[8] = Aedes aegypti, 0.89 mg/mL (Table 1), read-out: Percentage of repellence of mosquitoes Aedes aegypti landing on the warm body
[9] = Aedes aegypti, 2 mg/mL (Table 1), read-out: Percentage of repellence of mosquitoes Aedes aegypti landing on the warm body
[10] = Aedes aegypti, 10 mg/mL (Table 1), read-out: Percentage of repellence of mosquitoes Aedes aegypti landing on the warm body
[11] = highest tested concentration, 1% (Table 3)

Compound | pest or weed control at 3.2 µg/mL (Aedes aegypti; [1]) [%] | pest or weed control at 7.1 µg/mL (Aedes aegypti; [2]) [%] | pest or weed control at 16 µg/mL (Aedes aegypti; [3]) [%] | pest or weed control at 35.7 µg/mL (Aedes aegypti; [4]) [%] | pest or weed control at 53 µg/mL (Aedes aegypti; [2]) [%] | pest or weed control at 80 µg/mL (Aedes aegypti; [5]) [%] | pest or weed control at 178 µg/mL (Aedes aegypti; [6]) [%] | pest or weed control at 400 µg/mL (Aedes aegypti; [7]) [%] | pest or weed control at 890 µg/mL (Aedes aegypti; [8]) [%] | pest or weed control at 2000 µg/mL (Aedes aegypti; [9]) [%] | pest or weed control at 4470 µg/mL (Aedes aegypti; [2]) [%] | pest or weed control at 10000 µg/mL (Aedes aegypti; [10]) [%] | pest or weed control at 400 µg/mL (Ixodes ricinus) [%] | pest or weed control at 2000 µg/mL (Ixodes ricinus) [%] | pest or weed control at 10000 µg/mL (Ixodes ricinus) [%] | mosquito landing within the two minutes of experiments (Aedes aegypti; [11]) | ticks repelled (Ixodes ricinus) | other results
COC(=O)Oc1ccc(C)cc1OC [compound 1141, (2-methoxy-4-methylphenyl) methyl carbonate] | 24 | 39 | 17 | 13 | 50 | 39 | 67 | 72 | 98 | 89 | 87 | 91 | 8.3 | 58.3 | 66.7 |  |  | pest or weed control at 4470 µg/mL (Anopheles gambiae; Anopheles gambiae, 4.47 mg/mL (Table 4), read-out: Percentage of repellence of mosquitoes Anopheles gambiae landing on the warm body): 100%; pest or weed control at 10000 µg/mL (Anopheles gambiae; Anopheles gambiae, 10 mg/mL (Table 4), read-out: Percentage of repellence of mosquitoes Anopheles gambiae landing on the warm body): 69%; repellence (no mosquito landing on the attractive stimulus) (Anopheles gambiae; with at least one of the two concentrations 0.447% & 1% (Table 4)): 100%
C=CCc1cc(OC)c(O)c(OC)c1 [compound 1191, 4-allyl-2,6-dimethoxyphenol] | 60 | 52 | 70 | 68 | 67 | 62 | 86 | 93 | 98 | 97 | 98 | 100 | 41.7 | 58.3 | 91.7 |  |  | pest or weed control at 119 µg/mL (Aedes aegypti; Aedes aegypti, 0.119 mg/mL (Table 1), read-out: Percentage of repellence of mosquitoes Aedes aegypti landing on the warm body): 50%; pest or weed control at 267 µg/mL (Aedes aegypti; Aedes aegypti, 0.267 mg/mL (Table 1), read-out: Percentage of repellence of mosquitoes Aedes aegypti landing on the warm body): 86%; pest or weed control at 598 µg/mL (Aedes aegypti; Aedes aegypti, 0.598 mg/mL (Table 1), read-out: Percentage of repellence of mosquitoes Aedes aegypti landing on the warm body): 98%; reduce mosquito landing (Aedes aegypti; since the lowest concentrations assessed (Table 1)): ≥ 50%
CC=Cc1ccc(OC)c(OC)c1 [compound 1195, 1,2-dimethoxy-4-prop-1-enylbenzene] |  |  |  |  |  |  |  |  |  |  |  |  | 46.2 | 76.9 | 100 | protect the attractive stimulus for any mosquito landing | repel all the ticks | pest or weed control at 16 µg/mL (Aedes aegypti; [2]): 56%; pest or weed control at 400 µg/mL (Aedes aegypti; [2]): 69%; pest or weed control at 10000 µg/mL (Aedes aegypti; [2]): 100%; pest or weed control at 0.0016 % (Aedes aegypti; Aedes aegypti, read-out: reduce the number of mosquito landings): > 50%; pest or weed control at 1 % (Aedes aegypti; Aedes aegypti, read-out: repellence): > 90%
COc1ccc(OC)c(OC)c1 [compound 1201, 1,2,4-trimethoxybenzene] |  |  |  |  |  |  |  |  |  |  |  |  | 0 | 23.1 | 100 |  | repel all the ticks | pest or weed control at 3.2 µg/mL (Aedes aegypti; Aedes aegypti, 0.0032 mg/mL (Table 2), read-out: Percentage of repellence of mosquitoes Aedes aegypti landing on the warm body): 46%; pest or weed control at 16 µg/mL (Aedes aegypti; Aedes aegypti, 0.016 mg/mL (Table 2), read-out: Percentage of repellence of mosquitoes Aedes aegypti landing on the warm body): 82%; pest or weed control at 35.7 µg/mL (Aedes aegypti; Aedes aegypti, 0.0357 mg/mL (Table 2), read-out: Percentage of repellence of mosquitoes Aedes aegypti landing on the warm body): 58%; pest or weed control at 80 µg/mL (Aedes aegypti; Aedes aegypti, 0.08 mg/mL (Table 2), read-out: Percentage of repellence of mosquitoes Aedes aegypti landing on the warm body): 72%; pest or weed control at 178 µg/mL (Aedes aegypti; Aedes aegypti, 0.178 mg/mL (Table 2), read-out: Percentage of repellence of mosquitoes Aedes aegypti landing on the warm body): 63%; pest or weed control at 400 µg/mL (Aedes aegypti; Aedes aegypti, 0.4 mg/mL (Table 2), read-out: Percentage of repellence of mosquitoes Aedes aegypti landing on the warm body): 79%; pest or weed control at 890 µg/mL (Aedes aegypti; Aedes aegypti, 0.89 mg/mL (Table 2), read-out: Percentage of repellence of mosquitoes Aedes aegypti landing on the warm body): 95%; pest or weed control at 2000 µg/mL (Aedes aegypti; Aedes aegypti, 2 mg/mL (Table 2), read-out: Percentage of repellence of mosquitoes Aedes aegypti landing on the warm body): 89%; pest or weed control at 10000 µg/mL (Aedes aegypti; Aedes aegypti, 10 mg/mL (Table 2), read-out: Percentage of repellence of mosquitoes Aedes aegypti landing on the warm body): 96%; decrease the number of mosquito landings (Aedes aegypti; lowest doses tested (0.00032% & 0.0016%) (Table 2)): two folds
COc1ccc(C=O)c(OC(C)=O)c1 [compound 1472, (2-formyl-5-methoxyphenyl) acetate] |  |  |  |  |  |  |  |  |  |  |  |  | 0 | 54.5 | 100 | protect the attractive stimulus for any mosquito landing | repel all the ticks | pest or weed control at 16 µg/mL (Aedes aegypti; Aedes aegypti, 0.016 mg/mL (Table 3), read-out: Percentage of repellence of mosquitoes Aedes aegypti landing on the warm body): 31%; pest or weed control at 400 µg/mL (Aedes aegypti; Aedes aegypti, 0.4 mg/mL (Table 3), read-out: Percentage of repellence of mosquitoes Aedes aegypti landing on the warm body): 81%; pest or weed control at 10000 µg/mL (Aedes aegypti; Aedes aegypti, 10 mg/mL (Table 3), read-out: Percentage of repellence of mosquitoes Aedes aegypti landing on the warm body): 100%; pest or weed control at 1 % (Aedes aegypti; Aedes aegypti, highest tested concentration, 1% (Table 3), read-out: repellence): > 90%; pest or weed control at 0.04 % (Aedes aegypti; Aedes aegypti, intermediate concentration of 0.04% (Table 3), read-out: repellence): > 75%
